{"source": "paper PMC11620503", "about": "(Antimicrobial Agents and Chemotherapy, 2024)", "test_in_all_cases": "MIC, broth microdilution", "key": {"[1]": {"tested_on": "207 Enterobacterales including carbapenem-resistant isolates", "assay_type": "cell-based"}, "[2]": {"tested_on": "MEM-nonsusceptible Enterobacterales", "assay_type": "cell-based", "details": "MEM-nonsusceptible Enterobacterales (127), cefiderocol 126 isolates"}, "[3]": {"tested_on": "serine-carbapenemase-producing isolates (Enterobacterales)", "assay_type": "cell-based", "details": "Enterobacterales with serine-carbapenemases (80), fixed concentration (μg/mL) in label"}, "[4]": {"tested_on": "MBL-producing isolates (Enterobacterales)", "assay_type": "cell-based"}, "[5]": {"tested_on": "55 isolates of A. baumannii", "assay_type": "cell-based, Acinetobacter baumannii", "details": "Acinetobacter baumannii (55)"}, "[6]": {"tested_on": "96 P. aeruginosa", "assay_type": "cell-based, Pseudomonas aeruginosa", "details": "Pseudomonas aeruginosa (96)"}, "[7]": {"tested_on": "MEM-, imipenem/relebactam-, and ceftolozane/tazobactam-nonsusceptible P. aeruginosa", "assay_type": "cell-based, Pseudomonas aeruginosa"}, "[8]": {"tested_on": "MEM-nonsusceptible Enterobacterales with serine-carbapenemases", "assay_type": "cell-based", "details": "MEM-nonsusceptible Enterobacterales with serine-carbapenemases (58)"}, "[9]": {"tested_on": "MEM-nonsusceptible Enterobacterales with metallo-carbapenemases", "assay_type": "cell-based", "details": "MEM-nonsusceptible Enterobacterales with metallo-carbapenemases (55), cefiderocol 54 isolates"}, "[10]": {"details": "All Enterobacterales (207), cefiderocol 205 isolates, CLSI breakpoints, marked c: breakpoints for β-lactam alone, tigecycline: FDA breakpoints"}, "[11]": {"details": "All Enterobacterales (207), cefiderocol 205 isolates, fixed concentration (μg/mL) in label"}, "[12]": {"details": "CLSI breakpoints, marked c: breakpoints for β-lactam alone, tigecycline: FDA breakpoints"}, "[13]": {"details": "fixed concentration (μg/mL) in label"}, "[14]": {"details": "Enterobacterales with metallo-carbapenemases (74), cefiderocol 73 isolates, CLSI breakpoints, marked c: breakpoints for β-lactam alone, tigecycline: FDA breakpoints"}, "[15]": {"details": "Enterobacterales with metallo-carbapenemases (74), cefiderocol 73 isolates, fixed concentration (μg/mL) in label"}, "[16]": {"details": "CLSI breakpoints, marked c: breakpoints for β-lactam alone"}, "[17]": {"details": "MEM-nonsusceptible Pseudomonas aeruginosa (76), CLSI breakpoints, marked c: breakpoints for β-lactam alone"}, "[18]": {"details": "MEM-nonsusceptible Pseudomonas aeruginosa (76), fixed concentration (μg/mL) in label"}, "[19]": {"details": "fixed concentration (μg/mL) in label, read-out: MIC90"}}, "note": "Several values for one entry are separate records, joined by “and”; a condition that tells them apart may be missing. Identical values can stand only once. Like-named read-outs stand apart in the source and are kept apart here."}
{"compound": "colistin", "values": [{"measurement": "CLSI MIC interpretation I (intermediate)", "setting": "[1]; [10]", "value": 78.3, "unit": "%"}, {"measurement": "CLSI MIC interpretation R (resistant)", "setting": "[1]; [10]", "value": 21.7, "unit": "%"}, {"measurement": "MIC50", "setting": "[1]; [11]", "value": 0.5, "unit": "mg/L"}, {"measurement": "MIC90", "setting": "[1]; [11]", "value": ">64", "unit": "mg/L"}, {"measurement": "CLSI MIC interpretation I (intermediate)", "setting": "[2]; [12]", "value": 77.2, "unit": "%"}, {"measurement": "CLSI MIC interpretation R (resistant)", "setting": "[2]; [12]", "value": 22.8, "unit": "%"}, {"measurement": "MIC50", "setting": "[2]; [13]", "value": 0.5, "unit": "mg/L"}, {"measurement": "MIC90", "setting": "[2]; [13]", "value": ">64", "unit": "mg/L"}, {"measurement": "MIC50", "setting": "[3]", "value": 0.5, "unit": "mg/L"}, {"measurement": "MIC90", "setting": "[3]", "value": ">64", "unit": "mg/L"}, {"measurement": "CLSI MIC interpretation I (intermediate)", "setting": "[4]; [14]", "value": 89.2, "unit": "%"}, {"measurement": "CLSI MIC interpretation R (resistant)", "setting": "[4]; [14]", "value": 10.8, "unit": "%"}, {"measurement": "MIC50", "setting": "[4]; [15]", "value": 0.5, "unit": "mg/L"}, {"measurement": "MIC90", "setting": "[4]; [15]", "value": 4, "unit": "mg/L"}, {"measurement": "MIC90", "setting": "[4]; MBL-producing isolates, comparators", "value": "≤ 4", "unit": "mg/L"}, {"measurement": "CLSI MIC interpretation I (intermediate)", "setting": "[5]; [16]", "value": 94.5, "unit": "%"}, {"measurement": "CLSI MIC interpretation R (resistant)", "setting": "[5]; [16]", "value": 5.5, "unit": "%"}, {"measurement": "MIC50", "setting": "[5]; [13]", "value": 1, "unit": "mg/L"}, {"measurement": "MIC90", "setting": "[5]; [13]", "value": 2, "unit": "mg/L"}, {"measurement": "CLSI MIC interpretation I (intermediate)", "setting": "[6]; [16]", "value": 100, "unit": "%"}, {"measurement": "CLSI MIC interpretation R (resistant)", "setting": "[6]; [16]", "value": 0, "unit": "%"}, {"measurement": "MIC50", "setting": "[6]; [13]", "value": 1, "unit": "mg/L"}, {"measurement": "MIC90", "setting": "[6]; [13]", "value": 1, "unit": "mg/L"}, {"measurement": "MIC Range", "setting": "[6]; [13]", "value": "0.25 to 2", "unit": "mg/L"}, {"measurement": "CLSI MIC interpretation I (intermediate)", "setting": "[7]", "value": 100, "unit": "%"}, {"measurement": "CLSI MIC interpretation R (resistant)", "setting": "[7]", "value": 0, "unit": "%"}, {"measurement": "MIC50", "setting": "[7]", "value": 1, "unit": "mg/L"}, {"measurement": "MIC90", "setting": "[7]", "value": 1, "unit": "mg/L"}, {"measurement": "MIC Range", "setting": "[7]", "value": "0.5 to 2 mg/L and 0.25 to 2 mg/L"}, {"measurement": "CLSI MIC interpretation (%) I", "setting": "[7]; I, intermediate (including susceptible dose-dependent), CLSI breakpoints, last subgroup of Table 2", "value": 100, "unit": "%"}, {"measurement": "CLSI MIC interpretation I (intermediate)", "setting": "[7]; [17]", "value": 100, "unit": "%"}, {"measurement": "CLSI MIC interpretation R (resistant)", "setting": "[7]; [17]", "value": 0, "unit": "%"}, {"measurement": "MIC50", "setting": "[7]; [18]", "value": 1, "unit": "mg/L"}, {"measurement": "MIC90", "setting": "[7]; [18]", "value": 1, "unit": "mg/L"}, {"measurement": "MIC Range", "setting": "[7]; [18]", "value": "0.25 to 2", "unit": "mg/L"}, {"measurement": "CLSI MIC interpretation (%) R", "setting": "[7]; R, resistant, CLSI breakpoints, last subgroup of Table 2", "value": 0, "unit": "%"}, {"measurement": "MIC50", "setting": "[7]; Table 2, broth microdilution", "value": 1, "unit": "mg/L"}, {"measurement": "MIC90", "setting": "[7]; Table 2, broth microdilution", "value": 1, "unit": "mg/L"}, {"measurement": "CLSI MIC interpretation I (intermediate)", "setting": "[8]; [12]", "value": 74.1, "unit": "%"}, {"measurement": "CLSI MIC interpretation R (resistant)", "setting": "[8]; [12]", "value": 25.9, "unit": "%"}, {"measurement": "MIC50", "setting": "[8]; [13]", "value": 0.5, "unit": "mg/L"}, {"measurement": "MIC90", "setting": "[8]; [13]", "value": ">64", "unit": "mg/L"}, {"measurement": "CLSI MIC interpretation R (resistant)", "setting": "[9]; [12]", "value": 14.5, "unit": "%"}, {"measurement": "MIC50", "setting": "[9]; [13]", "value": 0.5, "unit": "mg/L"}, {"measurement": "MIC90", "setting": "[9]; [13]", "value": 8, "unit": "mg/L"}]}
{"compound": "O=C(O)c1cn(C2CC2)c2cc(N3CCNCC3)c(F)cc2c1=O", "note": "[Ciprofloxacin]", "values": [{"measurement": "MIC90", "setting": "[1]; read-out: MIC90", "value": "> 64", "unit": "mg/L"}, {"measurement": "MIC90", "setting": "[2]; [19]", "value": "> 64", "unit": "mg/L"}, {"measurement": "MIC50", "setting": "[3]; read-out: MIC50", "value": 32, "unit": "mg/L"}, {"measurement": "MIC90", "setting": "[3]; read-out: MIC90", "value": "> 64", "unit": "mg/L"}, {"measurement": "MIC90", "setting": "[4]; Enterobacterales with metallo-carbapenemases (74), cefiderocol 73 isolates, fixed concentration (μg/mL) in label, read-out: MIC90", "value": "> 64", "unit": "mg/L"}, {"measurement": "MIC90", "setting": "[5]; [19]", "value": "> 64", "unit": "mg/L"}, {"measurement": "MIC50", "setting": "[6]; fixed concentration (μg/mL) in label, read-out: MIC50", "value": 16, "unit": "mg/L"}, {"measurement": "MIC90", "setting": "[6]; [19]", "value": 64, "unit": "mg/L"}, {"measurement": "MIC50", "setting": "[7]; Pseudomonas aeruginosa, Imipenem/relebactam-nonsusceptible Pseudomonas aeruginosa (43), fixed concentration (μg/mL) in label, read-out: MIC50", "value": 32, "unit": "mg/L"}, {"measurement": "MIC90", "setting": "[7]; Pseudomonas aeruginosa, Imipenem/relebactam-nonsusceptible Pseudomonas aeruginosa (43), fixed concentration (μg/mL) in label, read-out: MIC90", "value": 64, "unit": "mg/L"}, {"measurement": "MIC50", "setting": "[7]; Pseudomonas aeruginosa, MEM-nonsusceptible Pseudomonas aeruginosa (76), fixed concentration (μg/mL) in label, read-out: MIC50", "value": 16, "unit": "mg/L"}, {"measurement": "MIC90", "setting": "[7]; Pseudomonas aeruginosa, MEM-nonsusceptible Pseudomonas aeruginosa (76), fixed concentration (μg/mL) in label, read-out: MIC90", "value": 64, "unit": "mg/L"}, {"measurement": "MIC50", "setting": "[7]; Pseudomonas aeruginosa, Table 2, broth microdilution, read-out: MIC50", "value": 32, "unit": "mg/L"}, {"measurement": "MIC90", "setting": "[7]; Pseudomonas aeruginosa, Table 2, broth microdilution, read-out: MIC90", "value": 64, "unit": "mg/L"}]}
